Data published in patent publication US7728037B2, “Alpha-ketoglutarates of active ingredients and compositions containing same” (Sigma-Tau Industrie Farmaceutiche Riunite S.p.A., priority 2001, dated 2010).

System: rabbit heart papillary muscle subjected to hypoxia
Test: Metabolic tests: ATP concentrations in rabbit heart papillary muscle subjected to hypoxia after oral treatment
Type: in vivo
Conditions: 1 g/kg by mouth or equimolecular doses, three consecutive days; tissue held anoxic for 90 minutes; untreated controls 1.70±0.68 to 0.46±0.071
Text: After three consecutive days of treatment, sections of papillary muscle were isolated from the rabbit hearts and were perfused in a thermostatized bath with a saturated solution of 100% O2.

Row | Molecule | ATP concentrations in papillary muscle after hypoxia
1 | C[N+](C)(C)C[C@H](O)CC(=O)[O-] [L-carnitine] | 0.59 ± 0.31 µmol/g tissue
2 | L-carnitine alpha-ketoglutarate | 1.48 ± 0.72 µmol/g tissue
